What was measured:
[1] = target: T1, his-tagged FABP5 (Homo sapiens, UniProt Q01469); assay: Selectivity binding assay with FABP immobilized on Ni-NTA magnetic agarose beads; conditions: immobilized FABP5, 2 hr, room temperature
T1 construct: purchased Cayman Chemical Company
Description: (§1) For the selectivity binding assay, his-tagged FABP3 (0.75 mg/ml), FABP4 (0.75 mg/ml) and FABP5 (0.70 mg/ml) in 50 mM phosphate buffer containing 100 mM NaCl (20% glycerol, v/v, pH = 7.2) were used. Immobilization was performed following the manufacturer's procedures. Each solution of his-tagged FABP3 ([…], 1.5 µg), FABP4 (0.002 ml, 1.5 µg) or FABP5 (0.002 ml, 1.4 µg) was incubated with 0.02 ml Ni-NTA Magnetic Agarose Beads (Qiagen) and 0.5 ml protein binding buffer (50 mM NaH2PO4, 300 mM NaCl, 10 mM imidazole, pH = 8.0) at room temperature for 1 hr. After supernatant removal, protein binding buffer with 1% BSA was added, and the mixture was incubated at room temperature for 30 min. After removal of the supernatant, 0.4 ml of interaction buffer (50 mM NaH2PO4, 300 mM NaCl, 10 mM imidazole, and 0.005% Tween, v/v, pH = 8.0) and 0.05 ml [^125I]TAP1 (0.01 MBq) in interaction buffer (5% ethanol, v/v) were added. For measurement of non-specific binding, 0.05 ml of nonradioactive TAP1 in interaction buffer (5% ethanol, v/v, 11.3 µM) was added with the [^125I]TAP1. After incubation at room temperature for 2 hr, the supernatants were removed, and the beads washed with interaction buffer (5% ethanol, v/v). The radioactivity of beads in the tubes was measured with a well-type γ-counter (1480 Wizard3, PerkinElmer Japan Co., Osaka, Japan). Binding ratios were calculated as (radioactivity of beads)/(total applied radioactivity)/(protein abundance on beads)×100 (%Dose/µg protein).

[2] = target: T2, his-tagged FABP4 (Homo sapiens, UniProt P15090); assay: as above
T2 construct: purchased Cayman Chemical Company
T2 sequence (P15090 whole entry): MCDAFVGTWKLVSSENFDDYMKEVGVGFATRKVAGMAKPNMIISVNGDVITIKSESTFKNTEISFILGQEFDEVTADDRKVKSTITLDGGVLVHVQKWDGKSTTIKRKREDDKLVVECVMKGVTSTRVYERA
Description: as §1

[3] = Metabolite analysis in liver and kidneys; format: in vivo, ddY mice; conditions: 1 hr after i.v. administration, normal mice
Description: A saline solution (5% ethanol, v/v) of [^125I]TAP1 (1.20 MBq) was injected intravenously into the tail vein of ddY mice (males, 5 weeks old), and animals were sacrificed 1 hr post-injection. The liver and kidneys were removed and homogenized in 1 ml ice-cold 30 mM Tris-HCl buffer (pH = 8.5) containing 5 mM magnesium acetate at 4 °C. After addition of 3 ml cold methanol and vortexing, tissue samples were centrifuged (10,000×g, 5 min). The supernatants were filtered, and the filtrate was analyzed by RP-HPLC as described above.

[4] = Biodistribution in normal mice; format: in vivo, ddY mice; conditions: for Blood / Heart / Intestine / Kidney / Liver / Lung / Muscle / Pancreas / Spleen / Stomach / Thyroid gland: normal mice, i.v.
Description: A saline solution (5% ethanol, v/v) of [^125I]TAP1 (0.035 MBq) was injected intravenously into the tail vein of ddY mice (males, 5 weeks old). The mice were sacrificed at various post-injection time points, and the organs of interest were removed. The organ weights were determined, and the radioactivity in the organs was measured with a well-type γ-counter.

[5] = Serum protein binding by rapid equilibrium dialysis; format: in vitro ADME; conditions: mouse plasma, 37 °C, 4 hr
Description: The serum protein binding ratio of [^125I]TAP1 was measured using rapid equilibrium dialysis (RED) devices (Thermo Fisher Scientific K.K.) following the manufacturer's procedures. Briefly, [^125I]TAP1 (0.02 MBq, 0.02 ml) and mouse plasma (0.3 ml) were mixed and placed to the sample chamber and 0.5 ml PBS (-) was placed in the RED device buffer chamber. After incubation at 37 °C for 4 hr, 0.05 ml of the samples were obtained from each chamber. The binding ratios were calculated as: (sample chamber radioactivity)-(buffer chamber radioactivity)/(sample chamber radioactivity) x 100 (%).

[6] = In vitro stability in saline and plasma (RP-HPLC); format: in vitro ADME, ddY mice; conditions: 2 hr, 37 °C
Description: The in vitro stability of [^125I]TAP1 in plasma was measured using plasma samples taken from ddY mice (males, 7 weeks old). [^125I]TAP1 (0.07 MBq, 0.01 ml) was incubated with 0.1 ml plasma at 37 °C for 2 hr. After addition of 0.2 ml methanol and vortexing, the mixture was centrifuged (4,160×g, 10 min). The supernatant was filtered with a low protein binding hydrophilic PTFE membrane (Millex-LH MILLIPORE), and the filtrate was analyzed by RP-HPLC using a Cosmosil C18 column with an isocratic solvent of H2O (0.1% TFA, v/v)/acetonitrile (0.1% TFA, v/v) (37/63) at a flow rate of 1.5 ml/min.

T1 sequence (Q01469 whole entry): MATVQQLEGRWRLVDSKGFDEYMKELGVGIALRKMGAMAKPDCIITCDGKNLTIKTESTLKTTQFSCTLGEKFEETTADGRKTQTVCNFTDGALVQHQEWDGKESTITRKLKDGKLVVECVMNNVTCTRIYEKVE

For `O=c1cc(COc2cccc([125I])c2)[nH]c2nc(-c3ccccc3)nn12` [[^125I]TAP1], the “binding to FABP5” value [1] was 0.5±0.3 % dose/µg protein, the “FABP4 binding relative to FABP3” value ([2]; FABP4 over FABP3) was 11.5 fold and the “FABP4 binding relative to FABP5” value ([2]; FABP4 over FABP5) was 33.2 fold. For the same compound, the “binding to FABP4” value ([2]; immobilized FABP4, 2 hr, room temperature) was 16.3±3.4 % dose/µg protein, the “intact form in kidneys” value [3] was “more than 90%” and the “intact form in liver” value [3] was “more than 90%”. The “stability against deiodination in vivo” value ([4]; low radioactivity in stomach and thyroid gland) was “stable against deiodination”, the Blood ([4]; 5 min) was 3.25±0.20 % injected dose per gram and the Heart ([4]; 5 min) was 1.59±0.54 % injected dose per gram. The Intestine ([4]; 5 min) was 2.21±1.43 % injected dose per gram, the Kidney ([4]; 5 min) was 15.30±9.93 % injected dose per gram and the Liver ([4]; 5 min) was 57.51±4.79 % injected dose per gram. For the same compound, the Lung ([4]; 5 min) was 3.12±1.11 % injected dose per gram, the Muscle ([4]; 5 min) was 0.73±0.51 % injected dose per gram and the Pancreas ([4]; 5 min) was 1.53±0.84 % injected dose per gram. For the same compound, the Spleen ([4]; 5 min) was 1.54±0.60 % injected dose per gram, the Stomach ([4]; 5 min) was 0.40±0.14 % injected dose per organ and the Thyroid gland ([4]; 5 min) was 0.01±0.005 % injected dose per organ. It also gave a Blood ([4]; 15 min) of 3.91±0.75 % injected dose per gram, a Heart ([4]; 15 min) of 1.57±0.51 % injected dose per gram and an Intestine ([4]; 15 min) of 2.21±0.72 % injected dose per gram. For the same compound, the Kidney ([4]; 15 min) was 32.89±11.78 % injected dose per gram, the Liver ([4]; 15 min) was 47.58±2.57 % injected dose per gram and the Lung ([4]; 15 min) was 2.88±0.65 % injected dose per gram. The Muscle ([4]; 15 min) was 0.83±0.09 % injected dose per gram, the Pancreas ([4]; 15 min) was 1.23±0.26 % injected dose per gram and the Spleen ([4]; 15 min) was 1.84±0.43 % injected dose per gram. For the same compound, the Stomach ([4]; 15 min) was 0.76±0.14 % injected dose per organ, the Thyroid gland ([4]; 15 min) was 0.03±0.01 % injected dose per organ and the Blood ([4]; 30 min) was 3.45±0.41 % injected dose per gram. It also gave a Heart ([4]; 30 min) of 1.39±0.25 % injected dose per gram, an Intestine ([4]; 30 min) of 3.83±0.07 % injected dose per gram and a Kidney ([4]; 30 min) of 45.34±3.34 % injected dose per gram. It also gave a Liver ([4]; 30 min) of 50.91±7.27 % injected dose per gram, a Lung ([4]; 30 min) of 2.76±0.49 % injected dose per gram and a Muscle ([4]; 30 min) of 0.67±0.16 % injected dose per gram. For the same compound, the Pancreas ([4]; 30 min) was 0.89±0.12 % injected dose per gram, the Spleen ([4]; 30 min) was 1.29±0.13 % injected dose per gram and the Stomach ([4]; 30 min) was 0.92±0.21 % injected dose per organ. The Thyroid gland ([4]; 30 min) was 0.03±0.01 % injected dose per organ, the Blood ([4]; 60 min) was 2.02±0.35 % injected dose per gram and the Heart ([4]; 60 min) was 0.96±0.32 % injected dose per gram. The Intestine ([4]; 60 min) was 5.10±1.43 % injected dose per gram, the Kidney ([4]; 60 min) was 45.89±13.85 % injected dose per gram and the Liver ([4]; 60 min) was 46.70±4.43 % injected dose per gram. It also gave a Lung ([4]; 60 min) of 1.93±0.91 % injected dose per gram, a Muscle ([4]; 60 min) of 0.64±0.20 % injected dose per gram and a Pancreas ([4]; 60 min) of 1.46±0.55 % injected dose per gram. It also gave a Spleen ([4]; 60 min) of 1.14±0.38 % injected dose per gram, a Stomach ([4]; 60 min) of 1.40±0.69 % injected dose per organ and a Thyroid gland ([4]; 60 min) of 0.02±0.08 % injected dose per organ. The Blood ([4]; 120 min) was 1.72±0.49 % injected dose per gram, the Heart ([4]; 120 min) was 1.11±0.23 % injected dose per gram and the Intestine ([4]; 120 min) was 10.58±1.93 % injected dose per gram. It also gave a Kidney ([4]; 120 min) of 50.84±18.75 % injected dose per gram, a Liver ([4]; 120 min) of 31.00±1.52 % injected dose per gram and a Lung ([4]; 120 min) of 1.46±0.13 % injected dose per gram. For the same compound, the Muscle ([4]; 120 min) was 0.71±0.24 % injected dose per gram, the Pancreas ([4]; 120 min) was 0.64±0.1 % injected dose per gram and the Spleen ([4]; 120 min) was 1.44±1.21 % injected dose per gram. The Stomach ([4]; 120 min) was 2.02±0.70 % injected dose per organ, the Thyroid gland ([4]; 120 min) was 0.14±0.21 % injected dose per organ and the “percentage bound to serum proteins” value [5] was “more than 99%”. The “stability in mouse plasma” value ([6]; mouse plasma) was “no radioactive degradation products were observed” and the stability in saline ([6]; saline) was “no radioactive degradation products were observed”.

Reference: publication PMC3986099, “Development of a Radioiodinated Triazolopyrimidine Probe for Nuclear Medical Imaging of Fatty Acid Binding Protein 4” (PLoS ONE, 2014)
